No end group written: not given here. sulfated CM‑chitin = sulfated carboxymethyl-chitin (CM-chitin), conjugated to the peptide; sulfated succinylated CM‑chitin = sulfated succinylated CM-chitin; trimellityl CM‑chitin = trimellityl derivative of CM-chitin

The subject of one assay is fibronectin. As to the kind of experiment: Cell adhesion-inhibitory test against fibronectin (competitive assay, number of adhered cells). The conditions noted are these: endothelium cells of blood vessel, 37° C., one hour, 0 mg/ml control 160. In kind it is cell-based, human. The method in brief:
(§1)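 Plates were coated overnight at 37 °C with human fibronectin or vitronectin and blocked with 1% BSA. Vascular endothelial cells were added with CM-chitin derivative (0–1.5 mg/mL solutions in DMEM) for 1 h at 37 °C. After washing, adhered cells were detached with trypsin-EDTA and counted with Trypan Blue.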

In assay [1] the test system is human plasma rich in platelet. As to the kind of experiment: Platelet coagulation-inhibitory activity in vitro, transmittance by aggregometer. The conditions noted are these: 37° C., 3 minutes preincubation; for Platelet Coagulation-Inhibitory Action IC50, ADP Stimulation: ADP stimulation (50 μM ADP solution); for Platelet Coagulation-Inhibitory Action IC50, Collagen Stimulation: collagen stimulation (200 μg/ml collagen solution). In kind it is cell-based. The method in brief:
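Citrated human platelet-rich plasma was preincubated with CM-chitin derivative (solutions of 0–1.5 mg/ml in saline) for 3 min at 37 °C, then challenged with 50 μM ADP or 200 μg/ml collagen solution. Aggregometer transmittance gave inhibition as (1−T/T0)×100%, with T0 the untreated transmittance.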

Another assay concerns vitronectin. As to the kind of experiment: Cell adhesion-inhibitory test against vitronectin (competitive assay, number of adhered cells). The conditions noted are these: endothelium cells of blood vessel, 37° C., one hour, 0 control 249. In kind it is cell-based, human. The method in brief:
as §1

The mark [2] stands for this setting: concentration 10 mg/ml (so in the source).
[3] abbreviates: concentration 50 mg/ml (so in the source).
Where [4] appears, read: concentration 100 mg/ml (so in the source).
[5] abbreviates: concentration 300 mg/ml (so in the source).

Take “Sulfated CM-Chitin-Arg-Gly-Asp-Ser ({sulfated CM‑chitin}-RGDS) [CM--chitin derivative-13]”: the “Cell Adhesion-Inhibitory effect Against Fibronectin (number of adhered cells)” value is recorded as 77 cell/well with fibronectin (concentration 0.5 mg/ml), 57 cell/well in the assay on fibronectin (concentration 1.0 mg/ml), 33 cell/well in the assay on fibronectin (concentration 1.5 mg/ml) and 97 cell/well in the assay on fibronectin (concentration .25 mg/ml). In assay [1], the “Platelet Coagulation-Inhibitory Action IC50, ADP Stimulation” value was determined as 17 µg/mL. In addition, the “Platelet Coagulation-Inhibitory Action IC50, Collagen Stimulation” value in assay [1] was 7 µg/mL. The “Cell Adhesion-Inhibitory effect Against Vitronectin (number of adhered cells)” value in the assay on vitronectin (setting [2]) was found to be 103 cell/well; in the assay with vitronectin (setting [3]), 70 cell/well; with vitronectin (setting [4]), 47 cell/well; in the assay on vitronectin (setting [5]) it was 31 cell/well.

On to “Sulfated CM-Chitin-Gly-Arg-Gly-Asp-Ser ({sulfated CM‑chitin}-GRGDS) [CM--chitin derivative-14]”, for which the “Cell Adhesion-Inhibitory effect Against Fibronectin (number of adhered cells)” value in the assay with fibronectin (concentration 0.5 mg/ml) was 93 cell/well; in the assay with fibronectin (concentration 1.0 mg/ml) it was 68 cell/well; in the assay on fibronectin (concentration 1.5 mg/ml), 41 cell/well; with fibronectin (concentration .25 mg/ml) it was 111 cell/well. Moreover, in assay [1], the “Platelet Coagulation-Inhibitory Action IC50, ADP Stimulation” value was determined as 12 µg/mL. In addition, in assay [1], the “Platelet Coagulation-Inhibitory Action IC50, Collagen Stimulation” value stood at 3 µg/mL. The “Cell Adhesion-Inhibitory effect Against Vitronectin (number of adhered cells)” value with vitronectin (setting [2]) worked out at 107 cell/well; in the assay with vitronectin (setting [3]) it was 78 cell/well; in the assay on vitronectin (setting [4]), 43 cell/well; with vitronectin (setting [5]), 34 cell/well.

As for “Sulfated Succinylated CM-Chitin-Arg-Gly-Asp-Ser ({sulfated succinylated CM‑chitin}-RGDS) [CM--chitin derivative-15]”, the “Cell Adhesion-Inhibitory effect Against Fibronectin (number of adhered cells)” value is 89 cell/well in the assay on fibronectin (concentration 0.5 mg/ml), 65 cell/well in the assay with fibronectin (concentration 1.0 mg/ml), 37 cell/well with fibronectin (concentration 1.5 mg/ml) and 105 cell/well in the assay with fibronectin (concentration .25 mg/ml). The “Platelet Coagulation-Inhibitory Action IC50, ADP Stimulation” value in assay [1] was found to be 15 µg/mL. Moreover, the “Platelet Coagulation-Inhibitory Action IC50, Collagen Stimulation” value in assay [1] was 6 µg/mL. The “Cell Adhesion-Inhibitory effect Against Vitronectin (number of adhered cells)” value came out at 115 cell/well in the assay with vitronectin (setting [2]), 69 cell/well with vitronectin (setting [3]), 54 cell/well in the assay on vitronectin (setting [4]) and 38 cell/well with vitronectin (setting [5]).

Regarding “Sulfated Succinylated CM-Chitin-Gly-Arg-Gly-Asp-Ser ({sulfated succinylated CM‑chitin}-GRGDS) [CM--chitin derivative-16]”, the “Cell Adhesion-Inhibitory effect Against Fibronectin (number of adhered cells)” value is listed as 81 cell/well in the assay with fibronectin (concentration 0.5 mg/ml), 75 cell/well with fibronectin (concentration 1.0 mg/ml), 50 cell/well with fibronectin (concentration 1.5 mg/ml) and 103 cell/well with fibronectin (concentration .25 mg/ml). Besides, in assay [1], the “Platelet Coagulation-Inhibitory Action IC50, ADP Stimulation” value came to 12 µg/mL. Besides, the “Platelet Coagulation-Inhibitory Action IC50, Collagen Stimulation” value in assay [1] amounted to 2 µg/mL. Moreover, the “Cell Adhesion-Inhibitory effect Against Vitronectin (number of adhered cells)” value with vitronectin (setting [2]) is 122 cell/well; in the assay with vitronectin (setting [3]), 81 cell/well; in the assay with vitronectin (setting [4]), 63 cell/well; in the assay with vitronectin (setting [5]), 40 cell/well.

With “Trimellityl Derivative of CM-Chitin Arg-Gly-Asp-Ser ({trimellityl CM‑chitin}-RGDS) [CM--chitin derivative-6]”, the “Cell Adhesion-Inhibitory effect Against Fibronectin (number of adhered cells)” value in the assay with fibronectin (concentration 0.5 mg/ml) worked out at 107 cell/well; with fibronectin (concentration 1.0 mg/ml), 93 cell/well; in the assay on fibronectin (concentration 1.5 mg/ml), 66 cell/well; in the assay on fibronectin (concentration .25 mg/ml), 127 cell/well. Further, the “Platelet Coagulation-Inhibitory Action IC50, ADP Stimulation” value in assay [1] was 26 µg/mL. The “Platelet Coagulation-Inhibitory Action IC50, Collagen Stimulation” value in assay [1] worked out at 11 µg/mL. For the same substance, the “Cell Adhesion-Inhibitory effect Against Vitronectin (number of adhered cells)” value was found to be 133 cell/well with vitronectin (setting [2]), 98 cell/well in the assay on vitronectin (setting [3]), 71 cell/well in the assay with vitronectin (setting [4]) and 56 cell/well in the assay on vitronectin (setting [5]).

(Values after US5298488A, “CM-chitin derivatives and use thereof” (Fuji Photo Film Co., Ltd., priority 1990, dated 1994).)
